Legend:
[1] = Example 3: plasma PBA, PAA, PAGN PK on first full day of RAVICTI dosing; assay type: in vivo, human
Experimental: (§1) Pharmacokinetic (PK) Evaluable Population: all subjects from the safety population with individual concentration-time profiles that allow computation of meaningful PK parameter values. Measurements were taken at hour 0, between 4 and 6 hours, 8 hours, and between 12 and 24 hours after the first dose of the day on day 1 for stable subjects and on day 2 for subjects in HAC.
as §1, with “PK” for “Pharmacokinetic (PK)”

UCD patients = assay: HPN-100-009 (Example 2): growth and development, BMI and BSA Z-scores; assay type: in vivo, human; settings: Age 2 Months to <2 Years
Experimental: Assessment of Growth and Development: Baseline and Change from Baseline in Body Mass Index (BMI) Z-Score and Body Surface Area (BSA) Z-Score Up to Month 9.
End point description. To assess any effect of study drug treatment on growth, Z-scores were calculated to express the deviation from a reference population for BMI and BSA. The BMI Z-scores are based on the World Health Organization's Child Growth Standards charts. The BSA Z-Scores are based on weight-for-length charts. Negative Z-scores indicate lower than typical for age and gender while positive scores indicate higher than typical for age and gender. […] End point timeframe: Baseline, Day 7, Month 2, Month 3, Month 4, Month 5, Month 6, Month 9.

[2] = aged 0 to 2 months, 16 subjects
[3] = aged 2 months and up to 2 years, 10 subjects

## O=C(CCCc1ccccc1)OCC(COC(=O)CCCc1ccccc1)OC(=O)CCCc1ccccc1 [RAVICTI, benzenebutanoic acid, 1′,1″-(1,2,3-propanetriyl) ester]
[1]; aged 0 to 2 months, 7 subjects
  Plasma PBA mean Cmin: 4.8 (±4.2) μg/mL
[1]; aged 0 to 2 months, 10 subjects
  mean plasma PAA Cmin: 98.98 (±122.07) μg/mL
[1]; aged 0 to 2 months, 13 subjects
  mean plasma PAGN Cmin: 69.39 (±54.03) μg/mL
[1]; [2]
  Plasma PBA mean AUC[0-last]: 374.53 (±390.48) μg*hr/mL
  Plasma PBA mean Cmax: 46.2 (±49.8) μg/mL
  Plasma PBA mean Tmax: 9.39 (±7.41) hr
  mean plasma PAA AUC(0-last): 1321.18 (±1220.52) μg*hr/mL
  mean plasma PAA Cmax: 115.3 (±102.0) μg/mL
  mean plasma PAA Tmax: 9.85 (±9.26) hr
  mean plasma PAGN AUC(0-last): 1384.12 (±1141.03) μg*hr/mL
  mean plasma PAGN Cmax: 102.1 (±48.6) μg/mL
  mean plasma PAGN Tmax: 11.72 (±8.24) hr
[1]; [3]
  Plasma PBA mean AUC[0-last]: 280.936 (±293.553) μg*hr/mL
  Plasma PBA mean Cmax: 42.11 (±36.715) μg/mL
  Plasma PBA mean Cmin: 1.697 (±2.254) μg/mL
  Plasma PBA mean Tmax: 8.383 (±4.564) hr
  mean plasma PAA AUC(0-last): 246.126 (±238.547) μg*hr/mL
  mean plasma PAA Cmax: 36.52 (±31.784) μg/mL
  mean plasma PAA Cmin: 4.197 (±6.434) μg/mL
  mean plasma PAA Tmax: 7.422 (±7.351) hr
  mean plasma PAGN AUC(0-last): 583.835 (±285.241) μg*hr/mL
  mean plasma PAGN Cmax: 62.45 (±27.281) μg/mL
  mean plasma PAGN Cmin: 20.62 (±14.529) μg/mL
  mean plasma PAGN Tmax: 6.573 (±7.181) hr
UCD patients
  BMI Z-Score baseline: 0.795
  BMI Z-score, Change from Baseline at Day 7: -0.211
  BMI Z-score, Change from Baseline at Month 2: 0.0021
  BMI Z-score, Change from Baseline at Month 3: 0.213
  BMI Z-score, Change from Baseline at Month 4: 0.47
  BMI Z-score, Change from Baseline at Month 5: 0.164
  BMI Z-score, Change from Baseline at Month 6: 0.469
  BSA Z-Score baseline: 0.686
  BSA Z-score, Change from Baseline at Day 7: -0.185
  BSA Z-score, Change from Baseline at Month 2: -0.0437
  BSA Z-score, Change from Baseline at Month 3: 0.119
  BSA Z-score, Change from Baseline at Month 4: 0.381
  BSA Z-score, Change from Baseline at Month 5: 0.198
  BSA Z-score, Change from Baseline at Month 6: 0.398

Source: US10668040B2, “Treatment of urea cycle disorders in neonates and infants” (Horizon Therapeutics, LLC, priority 2017, dated 2020)
